The text below walks through data of PubChem BioAssay (NCI).

Structures are written as SMILES.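 Growth conditions: 96-well plates. Treatment: test compound, 48 hours, 5 concentrations. Analysis: linear interpolation between bracketing concentrations; unreached endpoints set to highest concentration. At the TGI there is no net growth.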 Some results are limits rather than exact numbers.

Assay in all cases: growth of human tumour cells (NCI), 48 h
Test [1] deals with MCF7 breast.
The test system of test [2] is HCT-15 colon.
Test [3] has as its system EKVX NSCLC.
Test [4] relates to LOX IMVI melanoma.
The subject of test [5] is PC-3 prostate.
Test [6] deals with SF-268 CNS.
Test [7] concerns A549 NSCLC.
Test [8] concerns MOLT-4 leukemia.

`Cc1cc(Cc2c(F)c(F)c(C(c3cc(C)no3)c3c(F)c(F)c(F)c(F)c3F)c(F)c2F)on1` (stereo not drawn): the TGI in test [1], in test [2], in test [3], in test [4], in test [5] and in test [6] was > 100 µM each time. The TGI in test [7] and in test [8] was > 100 µM each time.

Turning to `N#C/C(=C\NC(=S)c1ccncc1)c1nc2ccccc2s1`, the TGI in test [1], in test [2], in test [3], in test [4], in test [5] and in test [6] was > 100 µM in each case. Also, the TGI in test [7] and in test [8] was > 100 µM throughout.

As to `O=C(/C=C/c1ccc(O)c(O)c1)c1cc(O)cc(O)c1`, the TGI in test [1] was determined as 12.7 µM; in test [2], 29.2 µM; in test [3], 57.4 µM; in test [4], 18.9 µM; in test [5], 28.5 µM; in test [6], 42.8 µM. The TGI in test [7] and in test [8] was > 100 µM each time.

Consider `N#CCCN(CCC#N)c1ccc(/C=C2\N=C(c3ccccc3)N(NC(N)=S)C2=O)cc1`, for which the TGI in test [1], in test [2], in test [3], in test [4], in test [5] and in test [6] was > 100 µM in each case. Moreover, the TGI in test [7] and in test [8] was > 100 µM in each case.

For `C/C(=C/C(=O)Nn1c(Cc2ccccc2)n[nH]c1=O)C(=O)O`, the TGI in test [1], in test [2], in test [3], in test [4], in test [5] and in test [6] was > 100 µM in each case. The TGI in test [7] and in test [8] was > 100 µM in each case.

In the case of `CCCCN1C(=O)c2c(-c3sccc3N)sc(-c3sccc3N)c2C1=O`, the TGI in test [1] is > 100 µM; in test [2], > 100 µM; in test [3] it was > 83.7 µM; in test [4], > 100 µM; in test [5] it was > 100 µM; in test [6], > 74.3 µM. Further, the values for the TGI in test [7] and in test [8] were > 100 µM and > 24.4 µM, respectively.

Take `CC1OC(O[C@H]2C3C=CO[C@@H](OC4OC(CO)C(O)C(O)C4O)C3[C@@]3(COC(=O)/C=C/c4ccc(O)cc4)O[C@@H]23)C(O)C(O)C1O` (stereo partly drawn): the TGI in test [1], in test [2], in test [3], in test [4], in test [5] and in test [6] was > 100 µM each time. For the same compound, the TGI in test [7] and in test [8] was > 100 µM in each case.

Turning to `COC(=O)C1CCC(=O)N1C(c1ccc(OC)cc1)c1ccc(OC)cc1` (stereo not drawn), the TGI in test [1], in test [2], in test [3], in test [4], in test [5] and in test [6] was > 100 µM each time. The TGI in test [7] and in test [8] was > 100 µM in each case.

Regarding `CC(=C(C(N)=O)C(N)=O)C1C=C(c2cccs2)CC(c2ccc(Cl)cc2)=C1O` (stereo not drawn), the TGI in test [1] is > 100 µM; in test [2] it was > 100 µM; in test [3], > 100 µM; in test [4], 40.4 µM; in test [5], > 100 µM; in test [6] it was > 100 µM. Further, the TGI in test [7] and in test [8] was > 100 µM in each case.

In the case of `C#CC1(O)C(COP(=O)(O)OCC2OC(n3ccc(NCCCCCCCCCCCCCCCCCC)nc3=O)C(O)C2O)OC(n2ccc(N)nc2=O)C1O` (stereo not drawn), the TGI was > 59.7 µM in test [1]; 36.6 µM in test [2]; 54.1 µM in test [3]; 11.1 µM in test [4]; 31.7 µM in test [5]; 38.1 µM in test [6]. For the same compound, the TGI in test [7] is > 55.9 µM; in test [8] it was 40 µM.

As to `Cc1ccc(OC2CC(n3cnc4ncnc(Cl)c43)OC2Oc2ccc(C)cc2)cc1` (stereo not drawn), the TGI is 29.9 µM in test [1]; > 100 µM in test [2]; > 100 µM in test [3]; > 100 µM in test [4]; 36.3 µM in test [5]; 50.1 µM in test [6]. The results for the TGI in test [7] and in test [8] were 82.5 µM and > 100 µM, respectively.

`CC(C)(C)c1cc(C2=NN(c3ccccc3)C(c3ccccc3)C2)cc(C(C)(C)C)c1O` (stereo not drawn): the TGI in test [1], in test [2], in test [3], in test [4], in test [5] and in test [6] was > 100 µM in each case. The TGI in test [7] and in test [8] was > 100 µM in each case.

For `c1ccc2c(c1)ncn2C1CCCCO1` (stereo not drawn), the TGI in test [1], in test [2], in test [3], in test [4], in test [5] and in test [6] was > 100 µM throughout. The TGI in test [7] and in test [8] was > 100 µM throughout.

`Cc1ccc(O)c(-c2cc(-c3cccc(Cl)c3)c(C#N)c(N)n2)c1`: the TGI in test [1] stood at 42.7 µM; in test [2], 28 µM; in test [3] it was 58.9 µM; in test [4], 30.8 µM; in test [5], 83.4 µM; in test [6], 51.3 µM. The TGI in test [7] came out at 43.4 µM; in test [8] it was 38.6 µM.

In the case of `CC1(CCCO)CCCCCCCCCC(C)(CCCO)C1=O` (stereo not drawn), the TGI in test [1], in test [2], in test [3], in test [4], in test [5] and in test [6] was > 100 µM each time. The TGI in test [7] and in test [8] was > 100 µM each time.

As to `CCCCCCCCCCCCOP(=O)(O)OCC(N)C(=O)O` (stereo not drawn), the TGI was > 100 µM in test [1]; 36.6 µM in test [2]; > 100 µM in test [3]; 64 µM in test [4]; 35.1 µM in test [5]; > 100 µM in test [6]. In addition, the TGI is > 100 µM in test [7] and 36.2 µM in test [8].
